This assay concerns Hepatitis C virus. Kind of assay: Antiviral activity against Hepatitis C virus infected in human Huh7.5.1 cells after 72 hrs by focus formation assay. Format: functional, cell-based, Hepacivirus hominis. To be noted: Huh-7.5.1, 72 h.

With `N#CC[C@H]1C(C(=O)c2ccccc2)=CC=CN1Cc1ccccc1`, 10.8 µM corresponded to half-maximal inhibition (IC50).

For the compound `C=CC[C@]1(C(=O)c2ccccc2)C=CCN(Cc2ccccc2)[C@H]1CC#N`, the IC50 (in general, the midpoint of a concentration-inhibition curve) came out at 15.4 µM.

For the origin of these results see ChEMBL document CHEMBL4033617, “Stereo-controlled synthesis of functionalized tetrahydropyridines based on the cyanomethylation of 1,6-dihydropyridines and generation of anti-hepatitis C virus agents” (Bioorg Med Chem, 2017).
